In ChEMBL document CHEMBL1201862, “PubChem BioAssay data set” (2004):
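The compound was tested at five concentrations on cells cultured in 96-well plates, with a 48-hour exposure period. Here, GI50 denotes the concentration required for 50% inhibition of growth.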 Active and inactive are the calls of the source. No stated cut-off is given here; in the data, active = GI50 up to about 1.1 µM and inactive = higher.

Tests used:
Assay in all cases: NCI-60 cell line screen, 48 h
SNB-19 = system: SNB-19
HCT-15 = system: HCT-15
HCT-116 = system: HCT-116
SK-OV-3 = system: SK-OV-3
SF-539 = system: SF-539
ACHN = system: ACHN
Malme-3M = system: Malme-3M
OVCAR-8 = system: OVCAR-8
NCI-H460 = system: NCI-H460
SN12C = system: SN12C
SR = system: SR
LOX IMVI = system: LOX IMVI
786-0 = system: 786-0
U-251 = system: U-251
NCI-H522 = system: NCI-H522
SK-MEL-5 = system: SK-MEL-5
NCI-H226 = system: NCI-H226
CAKI-1 = system: CAKI-1
CCRF-CEM = system: CCRF-CEM
NCI-H23 = system: NCI-H23

Row | Structure (SMILES) | GI50 (SNB-19) | GI50 (HCT-15) [µM] | GI50 (HCT-116) | GI50 (SK-OV-3) | GI50 (SF-539) | GI50 (ACHN) | GI50 (Malme-3M) | GI50 (OVCAR-8) | GI50 (NCI-H460) | GI50 (SN12C) | GI50 (SR) | GI50 (LOX IMVI) | GI50 (786-0) | GI50 (U-251) | GI50 (NCI-H522) | GI50 (SK-MEL-5) | GI50 (NCI-H226) | GI50 (CAKI-1) | GI50 (CCRF-CEM) | GI50 (NCI-H23)
1 | CSc1cc(Cl)c(C)cc1S(=O)(=O)NC(=O)NNc1ccc(Cl)cc1 | > 100 µM (inactive) | > 100 | > 100 µM (inactive) | > 100 µM (inactive) | 40.1 µM (inactive) | 47.3 µM (inactive) | > 100 µM (inactive) | > 100 µM (inactive) | > 100 µM (inactive) | > 100 µM (inactive) | 70 µM (inactive) | > 100 µM (inactive) | > 100 µM (inactive) | > 100 µM (inactive) | 70.3 µM (inactive) | 69.5 µM (inactive) | 56 µM (inactive) | 94.6 µM (inactive) | – | –
2 | Cc1cc(N(CCC#N)CCC#N)ccc1C(/N=N\c1ccc(C(=O)O)cc1)=N\NC(=O)c1cc(Cl)ccc1O | 23.6 µM (inactive) | > 100 | 36.1 µM (inactive) | 28.2 µM (inactive) | > 10 µM (inactive) | 31.7 µM (inactive) | 56.6 µM (inactive) | 25.3 µM (inactive) | 36 µM (inactive) | > 100 µM (inactive) | 62.8 µM (inactive) | – | 19.3 µM (inactive) | 24.9 µM (inactive) | 17.1 µM (inactive) | 78.7 µM (inactive) | 18.7 µM (inactive) | 46.6 µM (inactive) | 59.8 µM (inactive) | 39.2 µM (inactive)
3 | C[C@@]1(O)C[C@@H](N2C(=O)O[C@@H](c3ccccc3)[C@H]2c2ccccc2)[C@@H]1COCc1ccccc1 | 34.8 µM (inactive) | 24.4 | 19.5 µM (inactive) | – | 20.8 µM (inactive) | 26.2 µM (inactive) | 20.6 µM (inactive) | 17.8 µM (inactive) | 17.7 µM (inactive) | 17.4 µM (inactive) | 15 µM (inactive) | 15.9 µM (inactive) | 21.3 µM (inactive) | 14.6 µM (inactive) | 15 µM (inactive) | 13.7 µM (inactive) | 20.2 µM (inactive) | 22 µM (inactive) | – | 16.1 µM (inactive)
4 | O=C(O)CSc1nnc2c3ccccc3c3ccccc3c2n1 | 44.7 µM (inactive) | 44.5 | 38.2 µM (inactive) | 71 µM (inactive) | 52.2 µM (inactive) | 53.6 µM (inactive) | 30 µM (inactive) | 50.4 µM (inactive) | 31.8 µM (inactive) | 38.9 µM (inactive) | 31.9 µM (inactive) | 41.6 µM (inactive) | 56.2 µM (inactive) | 46.8 µM (inactive) | 49.9 µM (inactive) | 45.9 µM (inactive) | 85.7 µM (inactive) | > 100 µM (inactive) | – | > 100 µM (inactive)
5 | CCOC(=O)NN(C(=O)OCC)C(C(=O)C1=CCCCC1)N(NC(=O)OCC)C(=O)OCC | > 100 µM (inactive) | > 100 | > 100 µM (inactive) | > 100 µM (inactive) | 9.57 µM (inactive) | > 100 µM (inactive) | > 100 µM (inactive) | > 100 µM (inactive) | > 100 µM (inactive) | > 100 µM (inactive) | > 100 µM (inactive) | > 100 µM (inactive) | > 100 µM (inactive) | > 100 µM (inactive) | > 100 µM (inactive) | > 100 µM (inactive) | > 100 µM (inactive) | > 100 µM (inactive) | – | > 100 µM (inactive)
6 | N#CC(NNC(=O)Cc1ccccc1)c1ccc([N+](=O)[O-])cc1 (stereo not given) | – | > 100 | > 100 µM (inactive) | > 100 µM (inactive) | > 100 µM (inactive) | > 100 µM (inactive) | > 100 µM (inactive) | > 100 µM (inactive) | > 100 µM (inactive) | > 100 µM (inactive) | > 100 µM (inactive) | > 100 µM (inactive) | > 100 µM (inactive) | > 100 µM (inactive) | > 100 µM (inactive) | > 100 µM (inactive) | > 100 µM (inactive) | – | > 100 µM (inactive) | > 100 µM (inactive)
7 | CCn1c(=O)c2c3ccc(OC(C)=O)cc3[nH]c2c2ccc(OC(C)=O)cc21 | 50.5 µM (inactive) | 62.2 | 15.5 µM (inactive) | 44.3 µM (inactive) | 39 µM (inactive) | 31.9 µM (inactive) | 32.2 µM (inactive) | 31.3 µM (inactive) | 29 µM (inactive) | 32.7 µM (inactive) | 36.6 µM (inactive) | – | 58.1 µM (inactive) | 37.2 µM (inactive) | 37.2 µM (inactive) | 30.8 µM (inactive) | 24.8 µM (inactive) | 61.5 µM (inactive) | 15.2 µM (inactive) | 40.3 µM (inactive)
